{"source": "paper PMC10613275", "about": "(Scientific Reports, 2023)", "key": {"[1]": {"design": "method as in PMID 32763837", "conditions": "children and adolescents in Germany ref 40; cited from earlier work"}, "rats": {"system": "rats", "conditions": "rats ref 41; cited from earlier work"}, "[2]": {"system": "MCF-7 human breast cancer cells", "conditions": "lilial 100 µM, estrogen 10 nM; unaffected control 1.8 doublings ref 8; cited from earlier work"}, "HeLa cells": {"system": "HeLa cells", "assay": "γH2AX biomarker-based genotoxicity assay, HeLa", "assay_type": "cell-based, human", "conditions": "PC 30 μM; for Fold, mean (γH2AX over negative control): above 1.5 indicates genotoxicity", "protocol": "(§1) Briefly, HeLa and CHO-K1 cells were seeded at a concentration of 1 × 10^5 cells/ml into the 96-well plates. CHO-K1 cells were used for comparison with HPRT test. HeLa cells were recommended by the manufacturer of the kit. After 24 h, cells were rinsed with PBS and cultivation medium (“Cell lines” Section) without ATB, with a reduced content of FBS (5%) was added. 30 µM valinomycin (in DMSO) was used as a positive control Samples were applied in the presence of non-toxic sample concentrations, i.e. 100 µM either with or without S9 mix. […] Cells were photographed using a fluorescence microscope (Olympus IX83); filters: DAPI (500 ms) and Cy3 (500 ms). Bioimage analysis in ImageJ software was performed as described previously."}, "CHO-K1 cells": {"system": "CHO-K1 cells", "assay_type": "cell-based, Chinese hamster", "conditions": "lilial 100 µM, PC 30 μM; for Fold, mean (γH2AX over negative control): above 1.5 indicates genotoxicity", "protocol": "as §1"}, "RPTEC/TERT1 cells": {"system": "RPTEC/TERT1 cells", "assay": "Nephrotoxicity, RT-qPCR of kidney damage biomarkers", "assay_type": "cell-based, human", "conditions": "100 µM, 48 h, normalized to GAPDH and ACTB", "protocol": "RPTEC/TERT1 cells were seeded at a concentration of 2 × 10^5 cells/ml in ProxUp2 medium into 60 mm Petri dishes. After 24 h, the cells were washed with PBS and […] metabolites (100 μM) were applied in fresh ProxUp2 medium. The cells were incubated with samples for 48 h, after which the cells were washed with PBS and dishes were frozen in - 160 °C. The RNA was isolated using RNeasy Plus Mini Kit (Qiagen, Hilden, Germany). The RNA concentration and purity was determined with NanoDrop One (ThermoFisher Scientific) spectrophotometr. The cDNA synthesis was performed from 0.1 μg of total RNA with an iScript Reverse Transcription Supermix (Bio-Rad, Hercules, California, USA). Quantitative real-time PCR (qPCR) was performed using the qPCR Bio-Rad C100 Touch System (Bio-Rad) with a 96-well block. The reaction mixture consisted of 1 μl of specific 20 × PrimePCR Assay (Bio-Rad), 10 μl of 2 × SsoAdvance Universal Supermix (Bio-Rad), 2 μl of cDNA sample, 7 μl of nuclease-free water. The final reaction volume was 20 μl. […] Cycling parameters were: initial denaturation at 95 °C for 2 min, followed by 40 cycles of 95 °C for 5 s and 60 °C for 30 s. Fluorescence values were acquired after each extension phase. Samples were analyzed in triplicate, and samples with a standard deviation of duplicates > 0.2 Ct were re-analyzed. A non-template control containing nuclease-free water instead of cDNA as well as non-RT control containing purified RNA without reverse transcription was used. The real-time PCR study followed the MIQE guidelines. Relative transcript levels of the estimated genes in the cell lines were compared using the software CFX Maestro Software 2.3 (Bio-Rad)."}, "CHO-K1 cells (hprt gene) [3]": {"system": "CHO-K1 cells (hprt gene)", "assay": "CHO/HPRT mutation assay", "assay_type": "cell-based, Chinese hamster", "conditions": "Table 4, With S9; lilial 500 µM, 3MC 2 µg/ml", "protocol": "The test with metabolic activation was performed as described in the OECD protocol, the ASTM standard[23] and other protocols[30],[31] and publications. For the test, cryopreserved CHO-K1 cells after the mutant cleansing were used. Mutant cleansing was performed according to[30], i.e. cells were cultivated three days in HAT medium, one day in HT medium and then frozen.\nOne passage after the thawing, 1 × 10^6 cells were seeded in 60 mm cultivation plates as described in[32]. […] The final concentration of the solvent, DMSO, was 1%. […] EMS at final concentration 2 mM as recommended in[31] served as a positive control. 3-MC at final concentration […][22] served as a positive control for metabolic activation. 1% DMSO was used as a VC. Sole cultivation medium served as a negative control (NC). After 4 h, the medium with tested substances was removed, plates were washed with PBS and fresh medium with 10% FBS was added.\nDuring the expression period (1 week), the cells on all 60 mm plates were passaged once. On day 8, cells were trypsinized, resuspended, counted and 2 × 10^5 cells of each plate were seeded on 60 mm plates in triplicates in the presence of a selective agents, 6-TG (30 µM) as described in[32]. […] 300 cells without the selective agent were seeded in a parallel to evaluate plating efficiency (PE). On day 15, the plates were washed with PBS, cells were fixed with ice cold methanol for 10 min and stained with 0.05% crystal violet in water for 30 min[33]. After washing with water, formed colonies were counted using Schuett Count (Schuett-biotec, Göttingen, Germany). Calculations were done as described in[29]. PE was calculated according to a general Eq. 1. Particular PE at selective conditions was calculated according to Eq. 2. Particular PE at non-selective conditions was calculated according to Eq. 3. Mutation frequency (MF) was calculated according to Eq. 4.1 PE=numberofcoloniesformed/numberofcellsplated 2 PEselective=numberofmutantcoloniesNMC/200,000 3 PEnon-selective=numberofcoloniesformed/300 4 MF=PEselectiveconditions/PEnon-selectiveconditions"}, "CHO-K1 cells (hprt gene) [4]": {"system": "CHO-K1 cells (hprt gene)", "assay": "CHO/HPRT mutation assay", "assay_type": "cell-based, Chinese hamster", "conditions": "3MC 2 µg/ml"}, "androgen receptor": {"system": "androgen receptor", "assay": "Androgenic activity, transactivation luciferase assay in MDA-kb2", "conditions": "MDA-kb2, positive control", "excerpt": "Results were expressed as fold induction (FI), i.e. fold increase compared to vehicle control. According to EPA[28], FI of positive control should be above 4 to meet the performance standard."}, "[5]": {"conditions": "Table 4, Without S9, lilial 500 µM"}}, "note": "Read-outs that look alike come from different tables or passages of the source. Marks after values point to notes of the source that are not given here."}
{"compound": "CC(C)(C)c1ccc(C(=O)O)cc1", "note": "[p-tert-butylbenzoic acid]", "values": [{"measurement": "Geometric mean concentration in urine", "setting": "[1]", "value": 10.21, "unit": "µg/L"}, {"measurement": "Effects on male reproduction", "setting": "rats", "value": "adverse effects on male reproduction"}]}
{"compound": "estrogen [reference compound]", "values": [{"measurement": "Cell doublings", "setting": "[2]", "value": 5.2, "unit": "doublings"}]}
{"compound": "CC(C)[C@@H]1NC(=O)[C@H](C)OC(=O)[C@@H](C(C)C)NC(=O)[C@@H](C(C)C)OC(=O)[C@H](C(C)C)NC(=O)[C@H](C)OC(=O)[C@@H](C(C)C)NC(=O)[C@@H](C(C)C)OC(=O)[C@H](C(C)C)NC(=O)[C@H](C)OC(=O)[C@@H](C(C)C)NC(=O)[C@@H](C(C)C)OC1=O", "note": "[PC, valinomycin]", "values": [{"measurement": "MoA (mean fluorescence values over area of the nuclei)", "setting": "HeLa cells; 4h_S9, lilial 100 µM", "value": "0.29**"}, {"measurement": "RA (%), mean (relative area of nuclei)", "setting": "HeLa cells; 4h_S9, lilial 100 µM", "value": 97.8, "unit": "%"}, {"measurement": "Fold, mean (γH2AX over negative control)", "setting": "HeLa cells; 4h_S9, lilial 100 µM", "value": 2.94}, {"measurement": "MoA (mean fluorescence values over area of the nuclei)", "setting": "HeLa cells; 4 h, without S9, lilial 100 µM", "value": "0.13*"}, {"measurement": "RA (%), mean (relative area of nuclei)", "setting": "HeLa cells; 4 h, without S9, lilial 100 µM", "value": 95.8, "unit": "%"}, {"measurement": "Fold, mean (γH2AX over negative control)", "setting": "HeLa cells; 4 h, without S9, lilial 100 µM", "value": 2.63}, {"measurement": "MoA (mean fluorescence values over area of the nuclei)", "setting": "HeLa cells; 24 h, lilial 100 µM", "value": "0.55*"}, {"measurement": "RA (%), mean (relative area of nuclei)", "setting": "HeLa cells; 24 h, lilial 100 µM", "value": 101.5, "unit": "%"}, {"measurement": "Fold, mean (γH2AX over negative control)", "setting": "HeLa cells; 24 h, lilial 100 µM", "value": 24.03}, {"measurement": "MoA (mean fluorescence values over area of the nuclei)", "setting": "CHO-K1 cells; CHO-K1, 4h_S9", "value": 0.99}, {"measurement": "RA (%), mean (relative area of nuclei)", "setting": "CHO-K1 cells; CHO-K1, 4h_S9", "value": 90.8, "unit": "%"}, {"measurement": "Fold, mean (γH2AX over negative control)", "setting": "CHO-K1 cells; CHO-K1, 4h_S9", "value": 1.35}, {"measurement": "MoA (mean fluorescence values over area of the nuclei)", "setting": "CHO-K1 cells; CHO-K1, 4 h, without S9", "value": 1.14}, {"measurement": "RA (%), mean (relative area of nuclei)", "setting": "CHO-K1 cells; CHO-K1, 4 h, without S9", "value": 75.3, "unit": "%"}, {"measurement": "Fold, mean (γH2AX over negative control)", "setting": "CHO-K1 cells; CHO-K1, 4 h, without S9", "value": 1.45}, {"measurement": "MoA (mean fluorescence values over area of the nuclei)", "setting": "CHO-K1 cells; CHO-K1, 24 h", "value": 5.26}, {"measurement": "RA (%), mean (relative area of nuclei)", "setting": "CHO-K1 cells; CHO-K1, 24 h", "value": 48.5, "unit": "%"}, {"measurement": "Fold, mean (γH2AX over negative control)", "setting": "CHO-K1 cells; CHO-K1, 24 h", "value": 4.43}]}
{"compound": "CC(Cc1ccc(C(C)(C)CO)cc1)C(=O)O", "note": "(stereo not shown) [hydroxy-lysmerylic acid]", "values": [{"measurement": "Geometric mean concentration in urine", "setting": "[1]", "value": "< 0.4", "unit": "µg/L"}]}
{"compound": "CC(Cc1ccc(C(C)(C)C)cc1)C(=O)O", "note": "(stereo not shown) [lysmerylic acid]", "values": [{"measurement": "Geometric mean concentration in urine", "setting": "[1]", "value": "< 0.2", "unit": "µg/L"}]}
{"compound": "CN(C)[C@@H]1C(O)=C(C(N)=O)C(=O)[C@@]2(O)C(O)=C3C(=O)c4c(O)cccc4[C@@](C)(O)[C@H]3C[C@@H]12", "note": "[Tetracycline]", "values": [{"measurement": "Relative fold gene expression, CLU", "setting": "RPTEC/TERT1 cells", "value": "4.09*"}, {"measurement": "Relative fold gene expression, CST3", "setting": "RPTEC/TERT1 cells", "value": "1.64*"}, {"measurement": "Relative fold gene expression, HMOX", "setting": "RPTEC/TERT1 cells", "value": "4.93**"}, {"measurement": "Relative fold gene expression, IL6", "setting": "RPTEC/TERT1 cells", "value": 1.70}, {"measurement": "Relative fold gene expression, IL8", "setting": "RPTEC/TERT1 cells", "value": 1.19}, {"measurement": "Relative fold gene expression, IPO8", "setting": "RPTEC/TERT1 cells", "value": "1.41**"}, {"measurement": "Relative fold gene expression, TIMP1", "setting": "RPTEC/TERT1 cells", "value": 1.31}]}
{"compound": "Cc1ccc2cc3c(ccc4ccccc43)c3c2c1CC3", "note": "[3MC, 3-methylcholanthren]", "values": [{"measurement": "NMC (number of mutant colonies)", "setting": "CHO-K1 cells (hprt gene) [3]", "value": "17 ± 2"}, {"measurement": "PE (%) plating efficiency", "setting": "CHO-K1 cells (hprt gene) [3]", "value": "55 ± 4", "unit": "%"}, {"measurement": "MF (/106) mutation frequency", "setting": "CHO-K1 cells (hprt gene) [4]; Table 4, With S9, lilial 500 µM", "value": "152 ± 14 /106"}, {"measurement": "MF (/10^6) mutation frequency", "setting": "CHO-K1 cells (hprt gene) [4]; Table 4, Without S9", "value": "25 ± 31 /10^6"}, {"measurement": "NMC (number of mutant colonies)", "setting": "CHO-K1 cells (hprt gene) [4]; [5]", "value": "3 ± 4"}, {"measurement": "PE (%) plating efficiency", "setting": "CHO-K1 cells (hprt gene) [4]; [5]", "value": "66 ± 3", "unit": "%"}]}
{"compound": "C[C@]12CCC(=O)C[C@@H]1CC[C@@H]1[C@@H]2CC[C@]2(C)[C@@H](O)CC[C@@H]12", "note": "[DHT, dihydrotestosterone, reference compound]", "values": [{"measurement": "Concentration from which fold induction (FI) significantly increased", "setting": "androgen receptor", "value": "≥ 0.5", "unit": "nM"}]}
